Results as given in the NIST ThermoML archive (doi:10.1021/je400212t).
Where “and” joins values, the source holds several entries; their conditions need not be identical. Equal values may be shown once.

Settings: Liquid, Transpiration method

CCCCCCCCCCN [1-decanamine]
Settings	vapor or sublimation pressure
299.1 K	0.013 kPa
300.2 K	0.014 kPa
301.3 K	0.0158 kPa
304 K	0.0195 kPa
306.2 K	0.0228 kPa
307.3 K	0.0262 kPa
308.6 K	0.0291 kPa
310.2 K	0.0321 kPa
312.2 K	0.036 kPa
313.2 K	0.0426 kPa
315.1 K	0.046 kPa
316.2 K	0.0512 kPa
317.2 K	0.0553 kPa
320 K	0.0655 kPa
320.9 K	0.0722 kPa
323.2 K	0.0805 kPa
324.3 K	0.0911 kPa and 0.0914 kPa
327.2 K	0.106 kPa
330.1 K	0.135 kPa and 0.1356 kPa
332.8 K	0.1661 kPa and 0.1645 kPa
333.1 K	0.1628 kPa and 0.1635 kPa
335.9 K	0.1979 kPa and 0.2119 kPa
338.9 K	0.2519 kPa and 0.2628 kPa
341.9 K	0.3064 kPa and 0.3025 kPa
343 K	0.3357 kPa

CCCCCCCN [1-heptanamine]
Settings	vapor or sublimation pressure [kPa]
280.2 K	0.07823
282.2 K	0.09451
284.2 K	0.1088
286.2 K	0.1232
288.2 K	0.1408
290.2 K	0.1641
292.2 K	0.1907
294.2 K	0.2219
296.2 K	0.2488
298.3 K	0.2885
300.3 K	0.3288
302.2 K	0.38
303.2 K	0.4098
306.2 K	0.5027

CCCCCCCCN [1-octanamine]
Settings	vapor or sublimation pressure
274.2 K	0.0157 kPa
277.7 K	0.0208 kPa
281 K	0.0274 kPa
283.2 K	0.0325 kPa
283.6 K	0.0347 kPa
285.9 K	0.0428 kPa
286.5 K	0.0428 kPa
289.2 K	0.0517 kPa
289.6 K	0.0545 kPa
292.4 K	0.069 kPa and 0.0677 kPa
295.2 K	0.084 kPa
295.3 K	0.0856 kPa and 0.0834 kPa
298.1 K	0.1047 kPa
298.5 K	0.1064 kPa
301.1 K	0.1353 kPa
301.2 K	0.1294 kPa and 0.1369 kPa and 0.1341 kPa
301.3 K	0.1312 kPa and 0.1328 kPa
304 K	0.1653 kPa
304.1 K	0.1667 kPa
307.1 K	0.2113 kPa
307.3 K	0.2102 kPa
310.2 K	0.2494 kPa
310.3 K	0.2578 kPa
312.3 K	0.3051 kPa
313 K	0.3121 kPa
313.3 K	0.3238 kPa

CC(N)c1ccccc1 (configuration not stated) [1-phenylethanamine]
Settings	vapor or sublimation pressure
283.6 K	0.02509 kPa
287.8 K	0.03534 kPa
291.3 K	0.04928 kPa and 0.04951 kPa
295.3 K	0.06595 kPa
299.2 K	0.08866 kPa
303.1 K	0.1183 kPa
307.1 K	0.1552 kPa
311 K	0.2024 kPa
314.9 K	0.2602 kPa
318.9 K	0.3391 kPa
322.8 K	0.4391 kPa

NCCc1ccccc1 [2-phenylethylamine]
Settings	vapor or sublimation pressure
285.2 K	0.01545 kPa
287.4 K	0.01817 kPa
288.2 K	0.01989 kPa and 0.01942 kPa
290.1 K	0.02316 kPa
293.1 K	0.02888 kPa
293.2 K	0.03129 kPa
298.2 K	0.04648 kPa and 0.04334 kPa
298.3 K	0.0443 kPa
300.1 K	0.05196 kPa
302 K	0.06007 kPa
303.2 K	0.06532 kPa
303.3 K	0.06414 kPa and 0.06328 kPa
304.2 K	0.06955 kPa
305.1 K	0.07177 kPa and 0.0755 kPa
306.4 K	0.08176 kPa
308.2 K	0.09258 kPa and 0.0878 kPa
310.4 K	0.1067 kPa
311.2 K	0.1201 kPa
313.2 K	0.1331 kPa
313.4 K	0.1311 kPa
314.2 K	0.1374 kPa
317.2 K	0.1818 kPa
318.2 K	0.1891 kPa
318.4 K	0.1878 kPa
320.2 K	0.2187 kPa
323.2 K	0.2655 kPa

NCc1ccccc1 [benzylamine]
Settings	vapor or sublimation pressure
275.5 K	0.01437 kPa
276.7 K	0.01472 kPa and 0.01525 kPa
278.6 K	0.01828 kPa
279.6 K	0.01912 kPa and 0.02004 kPa
281.5 K	0.02307 kPa
282.3 K	0.02534 kPa and 0.02615 kPa
284.5 K	0.03135 kPa
285.7 K	0.03458 kPa and 0.03341 kPa
287.6 K	0.03874 kPa
288 K	0.03934 kPa
290.5 K	0.04695 kPa
291.6 K	0.05362 kPa
293.5 K	0.06098 kPa
294.2 K	0.06487 kPa
296.5 K	0.07884 kPa
297.7 K	0.08247 kPa
298.4 K	0.0869 kPa
300.3 K	0.1015 kPa
301.3 K	0.1137 kPa
303.3 K	0.1283 kPa
303.4 K	0.1277 kPa and 0.1263 kPa
303.5 K	0.126 kPa
304.3 K	0.1363 kPa
306.1 K	0.1469 kPa
306.3 K	0.1514 kPa
307.4 K	0.1693 kPa
308.3 K	0.1781 kPa
308.4 K	0.1767 kPa
309.4 K	0.1871 kPa
309.5 K	0.1951 kPa
310.3 K	0.2082 kPa
312.2 K	0.2284 kPa
312.3 K	0.2272 kPa and 0.2339 kPa
313.4 K	0.2491 kPa
315.6 K	0.3016 kPa
